Assay results reported in publication PMC12645437, “Orthogonal IMiD-Degron Pairs Induce Selective Protein Degradation in Cells” (ACS Chemical Biology, 2025).
Read-outs that look alike come from different tables or passages of the source. One block for each compound: values may come before it.

Experiments:
Jurkat cells = assay: TMTpro quantitative proteomics, 16 h; settings: for Scaled value (to 150), replicate 01 / Scaled value (to 150), replicate 02 / Scaled value (to 150), replicate 03 / Log2(ratio) compound/UT / Ratio to untreated, replicate 01 / Ratio to untreated, replicate 02 / Ratio to untreated, replicate 03: Jurkat whole cell extracts; for Scaled value (to 150), replicate 01 / Scaled value (to 150), replicate 02 / Scaled value (to 150), replicate 03: TMTpro SPS-MS3; for Log2(ratio) compound/UT: Welch's t-test with FDR correction
Method: Quantitative proteomics screens were carried out in untransduced Jurkat cells, embryonic stem cells (ESCs), and the multiple myeloma cell line, MM.1S. We used Jurkat cells, as our work up to this point had employed this cell line, and we selected ESCs and MM.1S cells as they express known CRBN neosubstrates, including IKZF1, IKZF3, RAB28, RNF166, SALL4, ZFP91, and ZNF827.
Proteomics - cell lysis and protein digestion
The viability of Jurkat cells was tested after 16-h treatment with corresponding chemicals
viable cells in each condition. Next, ~10^7 cells per condition were collected by centrifugation (1000 rpm), washed twice with ice-cold PBS, and lysed in RIPA buffer [50 mM HEPES pH 7.4, 150 mM NaCl, 1% sodium deoxycholate, 1% NP-40, 0.1% SDS, 10 mM sodium pyrophosphate, 10 mM β-glycerophosphate, 2.5 mM MgCl2, 200 µM TCEP, phosphatase and protease inhibitor cocktail (in-house)], to produce whole cell extracts. Whole-cell extracts were sonicated, and protein concentrations were determined using the Bradford assay. Protein extracts (100 µg) were subjected to disulfide bond reduction with 5 mM TCEP (10 min) and alkylation with 25 mM chloroacetamide (20 min). Methanol–chloroform precipitation was performed prior to protease digestion. In brief, four parts of neat methanol were added to each sample and vortexed, one part chloroform was added to the sample and vortexed, and finally, three parts water was added to the sample and vortexed. The sample was centrifuged at 8000 rpm for 5 min at room temperature and subsequently washed twice with 100% methanol. Samples were resuspended in 100 mM EPPS pH8.5 containing
0.1% RapiGest and digested at 37 °C for 6 h with trypsin at a 100:1 protein-to-protease ratio.
Samples were then subjected to TMTpro
labeling. The preparation of MM1S cell extracts was conducted using the same procedure as for
Jurkat cells. ESC cells were plated onto 6 cm dishes 24 hours prior to the chemical treatment.
Following the chemical treatment, the cells on the dish were washed with DPBS four times, after
which RIPA buffer was added directly to the dish, and the lysate was collected using a scraper.
The whole cell lysates were then processed similarly to the Jurkat cell lysates.
Proteomics - Tandem mass tag labeling
Proline-based reporter isobaric Tandem Mass Tag (TMTpro) labeling of dried peptide samples
resuspended in 100 mM EPPS pH 8.5, was carried out as follows. TMTpro reagent was added to
samples (100 µg peptide), along with acetonitrile, to achieve a final acetonitrile concentration of
approximately 30% (v/v). Following incubation at room temperature for 1 h, the labeling efficiency
of a small aliquot was tested. The reaction was then quenched with hydroxylamine to a final
concentration of 0.5% (v/v) for 15 min. The TMTpro-labeled samples were pooled together at a
1:1 ratio. The sample was vacuum centrifuged to near dryness and subjected to C18 solid-phase
The dried TMTpro-labeled sample was resuspended in 100 μL of 10 mM NH4HCO3 pH 8.0 and
fractionated using basic pH reverse phase HPLC 40. Briefly, samples were offline fractionated over
a 90 min run, into 96 fractions by high pH reverse-phase HPLC (Agilent LC1260) through an aeris
peptide xb-c18 column (Phenomenex; 250 mm × 3.6 mm) for total proteome with mobile phase A
containing 5% acetonitrile and 10 mM NH4HCO3, and mobile phase B containing 90% acetonitrile

[1] = target: T1, Q147A mutant degron (ANQS) fused to EGFP (Homo sapiens, UniProt Q96SW2+Q9UKT9, Q147A); assay: Ratiometric EGFP:mCherry flow cytometry degradation assay, 18 h; format: cell-based; settings: Jurkat, read-out: DMax Q147A/%
T1 construct: pLVX-Sprout-IKZF3 130-189aa Q147A (ANQS); expressed in transfected cells

[2] = protein AADAT isoform 2 (Q8N5Z0-2)

T1 sequence (Q9UKT9 130-189 Q147A): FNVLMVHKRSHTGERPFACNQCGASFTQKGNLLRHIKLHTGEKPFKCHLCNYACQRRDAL
T1 sequence (Q96SW2 whole entry, the tested form may be a part): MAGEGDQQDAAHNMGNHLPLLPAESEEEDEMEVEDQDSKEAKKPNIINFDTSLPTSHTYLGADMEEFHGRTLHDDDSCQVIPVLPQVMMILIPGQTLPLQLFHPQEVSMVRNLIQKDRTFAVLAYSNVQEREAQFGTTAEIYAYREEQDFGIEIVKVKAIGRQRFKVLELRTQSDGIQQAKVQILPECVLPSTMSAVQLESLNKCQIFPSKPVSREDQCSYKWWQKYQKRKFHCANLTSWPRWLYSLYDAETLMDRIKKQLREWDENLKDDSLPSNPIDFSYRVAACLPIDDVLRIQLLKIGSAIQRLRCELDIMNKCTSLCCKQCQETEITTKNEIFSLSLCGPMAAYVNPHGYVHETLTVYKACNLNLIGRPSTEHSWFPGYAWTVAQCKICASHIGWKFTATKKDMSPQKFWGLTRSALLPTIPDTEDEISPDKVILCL
T1 sequence (Q16531 whole entry partner, the tested form may be a part): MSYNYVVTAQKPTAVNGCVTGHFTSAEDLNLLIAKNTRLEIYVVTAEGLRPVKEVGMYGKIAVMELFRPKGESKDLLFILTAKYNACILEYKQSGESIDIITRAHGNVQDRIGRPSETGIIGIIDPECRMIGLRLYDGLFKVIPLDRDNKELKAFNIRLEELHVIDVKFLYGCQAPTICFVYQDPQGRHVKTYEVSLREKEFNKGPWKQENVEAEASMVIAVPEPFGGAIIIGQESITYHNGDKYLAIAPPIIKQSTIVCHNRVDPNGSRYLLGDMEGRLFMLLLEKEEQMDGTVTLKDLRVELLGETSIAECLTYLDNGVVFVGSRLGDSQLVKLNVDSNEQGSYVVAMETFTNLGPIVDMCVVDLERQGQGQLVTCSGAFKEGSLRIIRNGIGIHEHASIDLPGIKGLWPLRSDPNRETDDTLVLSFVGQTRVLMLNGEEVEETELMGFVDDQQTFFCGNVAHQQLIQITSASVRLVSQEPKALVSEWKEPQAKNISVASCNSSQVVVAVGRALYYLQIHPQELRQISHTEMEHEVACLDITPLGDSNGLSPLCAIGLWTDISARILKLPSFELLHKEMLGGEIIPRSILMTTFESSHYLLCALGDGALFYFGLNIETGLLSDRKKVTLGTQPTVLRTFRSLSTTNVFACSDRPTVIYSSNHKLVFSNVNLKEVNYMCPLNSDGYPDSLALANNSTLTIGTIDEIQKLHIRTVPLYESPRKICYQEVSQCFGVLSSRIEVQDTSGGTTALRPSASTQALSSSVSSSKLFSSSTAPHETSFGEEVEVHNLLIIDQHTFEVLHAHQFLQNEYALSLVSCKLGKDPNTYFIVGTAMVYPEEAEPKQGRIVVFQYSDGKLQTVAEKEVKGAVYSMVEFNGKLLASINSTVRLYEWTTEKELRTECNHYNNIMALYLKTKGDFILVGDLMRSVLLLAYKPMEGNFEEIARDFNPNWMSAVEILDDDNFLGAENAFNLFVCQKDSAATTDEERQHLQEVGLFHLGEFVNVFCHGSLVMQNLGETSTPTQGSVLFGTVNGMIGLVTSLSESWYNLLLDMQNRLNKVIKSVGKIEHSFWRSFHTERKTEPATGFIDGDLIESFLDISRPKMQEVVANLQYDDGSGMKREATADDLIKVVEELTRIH

Dmax ([1]; 18 h, Fig 2B): 90%
Compound: Nc1ccc2c(c1)C(=O)N(C1CCC(=O)NC1=O)C2=O (centres unmarked) [Compound 3]

Dmax ([1]; 18 h, Fig 2B): 82%
Compound: COc1ccc2c(c1)C(=O)N(C1CCC(=O)NC1=O)C2=O (centres unmarked) [Compound 7]

Dmax ([1]; 18 h, Fig 2B): 88%
Compound: O=C1CCC(N2C(=O)c3cccc(Cl)c3C2=O)C(=O)N1 (centres unmarked) [Compound 10]

Dmax ([1]; 18 h, Fig 2B): 66%
Compound: O=C1CCC(N2C(=O)c3cccc(Br)c3C2=O)C(=O)N1 (centres unmarked) [Compound 12]

Dmax ([1]; 18 h, Fig 2B): 56%
Compound: O=C1CCC(N2C(=O)c3ccc(Br)cc3C2=O)C(=O)N1 (centres unmarked) [Compound 13]

Dmax ([1]; 18 h, Fig 2B): 86%
Compound: O=C1CCC(N2C(=O)c3cccc(I)c3C2=O)C(=O)N1 (centres unmarked) [Compound 14]

Dmax ([1]; 18 h, Fig 2B): 91%
Compound: O=C1CCC(N2C(=O)c3ccc(C(F)(F)F)cc3C2=O)C(=O)N1 (centres unmarked) [Compound 18]

Dmax ([1]; 18 h, Fig 2B): 66%
Compound: O=C1CCC(N2C(=O)c3ccc(-c4ccccc4)cc3C2=O)C(=O)N1 (centres unmarked) [Compound 20]

Dmax ([1]; 18 h, Fig 2B): 96%
Compound: CCNc1cccc2c1C(=O)N(C1CCC(=O)NC1=O)C2=O (centres unmarked) [Compound 24]

Dmax ([1]; 18 h, Fig 2B): 95%
Compound: O=C1CCC(N2C(=O)c3cccc(NCc4ccccc4)c3C2=O)C(=O)N1 (centres unmarked) [Compound 26]

Dmax ([1]; 18 h, Fig 2B): 82%
Compound: O=C1CCC(N2C(=O)c3cccc(OCc4cccnc4)c3C2=O)C(=O)N1 (centres unmarked) [Compound 31]

Second part, the compound before the results:

Compound: CN1CCN(c2ccc3c(c2)C(=O)N(C2CCC(=O)NC2=O)C3=O)CC1 (centres unmarked) [Cmpd23]
Scaled value (to 150), replicate 01 (Jurkat cells; protein A2M (P01023)): 8.458
Scaled value (to 150), replicate 02 (Jurkat cells; protein A2M (P01023)): 9.12
Scaled value (to 150), replicate 03 (Jurkat cells; protein A2M (P01023)): 12.2998
Scaled value (to 150), replicate 01 (Jurkat cells; protein AAAS (Q9NRG9)): 10.4661
Scaled value (to 150), replicate 02 (Jurkat cells; protein AAAS (Q9NRG9)): 9.826
Scaled value (to 150), replicate 03 (Jurkat cells; protein AAAS (Q9NRG9)): 10.0212
Scaled value (to 150), replicate 01 (Jurkat cells; protein AACS (Q86V21)): 9.826
Scaled value (to 150), replicate 02 (Jurkat cells; protein AACS (Q86V21)): 9.749
Scaled value (to 150), replicate 03 (Jurkat cells; protein AACS (Q86V21)): 9.8
Scaled value (to 150), replicate 01 (Jurkat cells; [2]): 10.0867
Scaled value (to 150), replicate 02 (Jurkat cells; [2]): 10.5129
Scaled value (to 150), replicate 03 (Jurkat cells; [2]): 9.582
Log2(ratio) compound/UT (Jurkat cells; protein A2M (P01023)): -0.3516
Ratio to untreated, replicate 01 (Jurkat cells; protein A2M (P01023)): 0.6228
Ratio to untreated, replicate 02 (Jurkat cells; protein A2M (P01023)): 0.6715
Ratio to untreated, replicate 03 (Jurkat cells; protein A2M (P01023)): 0.9057
Log2(ratio) compound/UT (Jurkat cells; protein AAAS (Q9NRG9)): -0.01283
Ratio to untreated, replicate 01 (Jurkat cells; protein AAAS (Q9NRG9)): 1.017
Ratio to untreated, replicate 02 (Jurkat cells; protein AAAS (Q9NRG9)): 0.9547
Ratio to untreated, replicate 03 (Jurkat cells; protein AAAS (Q9NRG9)): 0.9736
Log2(ratio) compound/UT (Jurkat cells; protein AACS (Q86V21)): -0.01545
Ratio to untreated, replicate 01 (Jurkat cells; protein AACS (Q86V21)): 0.9811
Ratio to untreated, replicate 02 (Jurkat cells; protein AACS (Q86V21)): 0.9735
Ratio to untreated, replicate 03 (Jurkat cells; protein AACS (Q86V21)): 0.9785
Log2(ratio) compound/UT (Jurkat cells; [2]): 0.05616
Ratio to untreated, replicate 01 (Jurkat cells; [2]): 1.033
Ratio to untreated, replicate 02 (Jurkat cells; [2]): 1.076
Ratio to untreated, replicate 03 (Jurkat cells; [2]): 0.9809

Compound: O=C1CCC(N2C(=O)c3cccc(O)c3C2=O)C(=O)N1 (centres unmarked) [Compound 4]
Dmax [1]: 46%

Compound: COc1cccc2c1C(=O)N(C1CCC(=O)NC1=O)C2=O (centres unmarked) [Compound 6]
Dmax ([1]; 18 h, Fig 2B): 75%

Compound: O=C1CCC(N2C(=O)c3cccc(F)c3C2=O)C(=O)N1 (centres unmarked) [Compound 8]
Dmax ([1]; 18 h, Fig 2B): 57%

Compound: O=C1CCC(N2C(=O)c3ccc(F)cc3C2=O)C(=O)N1 (centres unmarked) [Compound 9]
Dmax ([1]; 18 h, Fig 2B): 89%

Compound: O=C1CCC(N2C(=O)c3ccc(Cl)cc3C2=O)C(=O)N1 (centres unmarked) [Compound 11]
Dmax ([1]; 18 h, Fig 2B): 37%

Compound: O=C1CCC(N2C(=O)c3ccc(I)cc3C2=O)C(=O)N1 (centres unmarked) [Compound 15]
Dmax ([1]; 18 h, Fig 2B): 77%

Compound: Cc1cccc2c1C(=O)N(C1CCC(=O)NC1=O)C2=O (centres unmarked) [Compound 16]
Dmax ([1]; 18 h, Fig 2B): 87%

Compound: Cc1ccc2c(c1)C(=O)N(C1CCC(=O)NC1=O)C2=O (centres unmarked) [Compound 17]
Dmax ([1]; 18 h, Fig 2B): 72%

Compound: CN(C)c1ccc2c(c1)C(=O)N(C1CCC(=O)NC1=O)C2=O (centres unmarked) [Compound 21]
Dmax ([1]; 18 h, Fig 2B): 86%

Compound: O=C1CCC(N2C(=O)c3cccc(NCc4cccnc4)c3C2=O)C(=O)N1 (centres unmarked) [Compound 27]
Dmax ([1]; 18 h, Fig 2B): 93%

Compound: Cc1ccccc1CNc1cccc2c1C(=O)N(C1CCC(=O)NC1=O)C2=O (centres unmarked) [Compound 28]
Dmax ([1]; 18 h, Fig 2B): 94%

Compound: O=C1CCC(N2C(=O)c3cccc(OCc4ccccc4)c3C2=O)C(=O)N1 (centres unmarked) [Compound 30]
Dmax ([1]; 18 h, Fig 2B): 85%

Compound: Cc1ccccc1COc1cccc2c1C(=O)N(C1CCC(=O)NC1=O)C2=O (centres unmarked) [Compound 32]
Dmax ([1]; 18 h, Fig 2B): 65%

Compound: O=C1CCC(N2C(=O)c3cccc(OC(c4ccccc4)c4ccccc4)c3C2=O)C(=O)N1 (centres unmarked) [Compound 34]
Dmax ([1]; 18 h, Fig 2B): 90%

Compound: O=C1CCC(N2C(=O)c3cccnc3C2=O)C(=O)N1 (centres unmarked) [Compound 35]
Dmax ([1]; 18 h, Fig 2B): 60%

Compound: O=C1CCC(N2C(=O)c3ccncc3C2=O)C(=O)N1 (centres unmarked) [Compound 36]
Dmax ([1]; 18 h, Fig 2B): 91%

Compound: Nc1cccc2c1CN(C1CCC(=O)NC1=O)C2=O (centres unmarked) [lenalidomide]
Scaled value (to 150), replicate 01 (Jurkat cells; protein A2M (P01023)): 10.2473
Scaled value (to 150), replicate 02 (Jurkat cells; protein A2M (P01023)): 8.044
Scaled value (to 150), replicate 03 (Jurkat cells; protein A2M (P01023)): 8.233
Scaled value (to 150), replicate 01 (Jurkat cells; protein AAAS (Q9NRG9)): 9.75
Scaled value (to 150), replicate 02 (Jurkat cells; protein AAAS (Q9NRG9)): 10.198
Scaled value (to 150), replicate 03 (Jurkat cells; protein AAAS (Q9NRG9)): 10.3119
Scaled value (to 150), replicate 01 (Jurkat cells; protein AACS (Q86V21)): 10.2128
Scaled value (to 150), replicate 02 (Jurkat cells; protein AACS (Q86V21)): 10.0368
Scaled value (to 150), replicate 03 (Jurkat cells; protein AACS (Q86V21)): 9.972
Scaled value (to 150), replicate 01 (Jurkat cells; [2]): 9.894
Scaled value (to 150), replicate 02 (Jurkat cells; [2]): 10.004
Scaled value (to 150), replicate 03 (Jurkat cells; [2]): 10.2911
proteins significantly degraded (quantitative proteomics) (Jurkat cells; Jurkat, 1 μM, 16 h, Welch's t test): at least 6 proteins
